Experimental findings from paper PMC12196476, “New Nitrogen-, Oxygen-, and Sulfur-Containing Heterocyclic Compounds as Anti-Colon Cancer Agents: Synthesis, Multitargeted Evaluations, Molecular Docking Simulations and ADMET Predictions” (Pharmaceuticals, 2025) are described below.

Assay [1] is described as follows: DPPH radical scavenging assay. As to conditions: three independent experiments; read-out: Mean IC50 (mM) for initial DPPH radicals ± SD. In general terms: Loss of DPPH colour is used to gauge radical scavenging.
Assay [2] deals with HCT-116 colon carcinoma cells. In words: Cell viability, LDH release assay, HCT-116. As to conditions: Homo sapiens, HCT-116, 48 h. For orientation: Release of lactate dehydrogenase indicates damage to the cell membrane.
The subject of the next assay is LoVo cells. In words: Cell cycle assay (PI flow cytometry), LoVo. Type of assay: cell-based, human. As to conditions: 30 µg/mL, 48 h, mean of n = 2 (Figure 1E); untreated control 11.51 ± 1.24%. On the procedure: Cell proliferation depends on orderly progression through the phases of the cell cycle (G1−S−G2−M). Cytotoxic agents can impair the integrity of DNA, leading to checkpoint arrest at G1/S or G2/M, which subsequently blocks proliferation. To evaluate the impact of compound 3d on cell cycle distribution, colon carcinoma cells were treated with 30 µg/mL of 3d for 48 h, followed by DNA content analysis using flow cytometry. […] In contrast, in HCT-116 cells, 3d caused an accumulation in the G1 phase, reaching 60.17 ± 1.44% versus 47.37 ± 1.68% in untreated cells (Figure 1E). […]
medium served used as negative and positive controls, respectively. Percentages of viable cells […]
wells (final concentration of 100 μg/mL), compared to the negative control, and expressed as mean value (%) ± SD from two replicates. Graphing dose-response curves representing the compound […]
(HUVECs) at final concentration of 100 μg/mL . HUVECs were grown in Dulbecco’s Modified Eagle’s Medium supplemented with 10% FBS, 2 mM glutamine (Sigma Aldrich), 100 units/mL penicillin and […] streptomycin (Life Technologies; Paisley, UK).
S3.2.5. Cell cycle assay.
HCT-116 and LoVo cultures upon treatment with compound 3d. HCT-116 and LoVo carcinoma […]
μg/mL for 48 h. […] Then, cells […]
of stained cancerous cells were determined. […]
carcinoma cells treated with compound 3d was assessed using the TMRE Mitochondrial Membrane
On the technique in general: In flow cytometry, cells or beads pass a laser one at a time.

A word on the IC50: it is the concentration needed to halve the response being measured. For `COc1cc(/C=N/c2ncnc3sc4c(c23)CCCC4)cc(OC)c1OC` [Compound 3d, (E)-N-(5,6,7,8-Tetrahydrobenzo[4,5]thieno[2,3-d]pyrimidin-4-yl)-1-(3,4,5-trimethoxyphenyl)methanimine], the concentration for half-maximal inhibition (IC50) amounted to 0.164 ± 0.008 mM in assay [1] and 161 µM in assay [2] (read-out: Mean IC50 Values in µM ± SD, HCT-116 cells). The viability at 100 µg/mL in assay [2] (read-out: Mean % of viable cells ± SD, HCT-116, 100 µg/mL, 48 h, LDH release assay) was below 29%. For the same compound, the “% of Cell population, LoVo: %G2/M” value in the assay on LoVo cells is 24.06 ± 1.32%.
